# Assay results: patent US6596778B1, “β-endorphin peptides for treating muscle-wasting diseases” (The University of Birmingham, priority 1997, dated 2003)
# Where a SMILES comes first, the peptide text is derived from it. Where no end group is shown, it is not given here. [ ]: non-standard residue; d: D form. Sar = CNCC(=O)O
# Key:
# mouse diaphragm muscle [1] = type: cell-based, mice, C57BL/6j strain; settings: for blockade of the agonist's/peptide's effect on contractile responses by BNTX (d1-opioid antagonist): BNTX 2.5×10^−7 M; for blockade of the agonist's/peptide's effect on contractile responses by BNTX (d1-opioid antagonist) / blockade of the agonist's/peptide's effect on contractile responses by NTB (d2-opioid antagonist): agonist/peptide 2.5×10^−7 M; for blockade of the agonist's/peptide's effect on contractile responses by NTB (d2-opioid antagonist): NTB 2.5×10^−7 M; for blockade of the peptide's effect on contractile responses by naloxone: naloxone 2.5×10^−6 M; for blockade of the peptide's effect on contractile responses by naloxone / 1/2 relaxation time / Time to peak: peptide 2.5×10^−7 M; for 1/2 relaxation time / Time to peak: low frequency indirect stimulation, mean ± S.E.M.
# Protocol: (§1) Adult female mice, 3-4 months of age, of the C57BL/6j strain were killed by cervical dislocation and the skin and musculature around the rib cage were removed. The diaphragm and part of the rib cage were carefully dissected out along with a length of the left phrenic nerve. The left hemidiaphragm (together with the left phrenic nerve stump) was pinned out in an organ bath containing oxygenated Krebs solution which was gassed continuously with 95% O2-5% CO2 at room temperature (approximately 20° C.) as described in Khan, S.; Smith, M. E., Muscle Nerve, 18, 1250-1256; 1995. The central tendon was attached with the aid of a silk thread to a force transducer (Dynamometer, model UF1), and the phrenic nerve was introduced into the end of a suction electrode for indirect stimulation.
# (§2) The phrenic nerve was stimulated continuously at a low frequency (0.5 Hz) with supramaximum square wave pulses of 0.2 msec width using a dual channel stimulator (Digitimer D4030). The muscle was allowed to equilibrate until the responses of the stimulated muscle had reached a constant amplitude (approximately 20 min). Krebs solution ([…]), or a solution ([…]) of the appropriate peptide, was added to the centre of the organ bath whilst the contractions were being recorded.
# (§3) Direct stimulation of the muscle was effected by two stainless steel needle electrodes placed near the centre of the hemidiaphragm. The position of the force transducer was adjusted until a constant resting tension was seen. When direct stimulation of the muscle was employed d-tubocurarine chloride (2.5×10^−6M) was included in the bathing medium to block the acetylcholine (ACh) receptors and prevent indirect stimulation of the muscles via the motor nerve terminals. The phrenic nerve was stimulated continuously at 0.5 Hz, d-tubocurarine was added to the organ bath, and then, when the responses to nerve stimulation had ceased, the muscle was subjected to continuous direct supramaximum stimulation at a frequency of 0.5 Hz. […] The amplitude, time to peak and half relaxation time of the contractions developed in response to indirect and direct stimulation were determined. The half-relaxation time of the contractions was expressed as the time taken for the tension to decline from the maximum amplitude to half maximum. The dose-response curves were analyzed using a Kaloidograph software package to determine the values for EC50 and maximum response. The significance of the results was determined, unless otherwise stated, using ANOVA, with treatment as the grouping factor, followed by the Bonferroni-Dunn post hoc test.
# mouse diaphragm muscle [2] = experiment: Contractions of hemidiaphragm in response to direct stimulation of the muscle in the presence of d-tubocurarine; type: cell-based, mice, C57BL/6j strain; settings: peptide 2.5×10^−8 M, mean ± S.E.M.
# Protocol: as §1
# as §3, with “terminals.” for “terminals. The phrenic nerve was stimulated continuously at 0.5 Hz, d-tubocurarine was added to the organ bath, and then, when the responses to nerve stimulation had ceased, the muscle was subjected to continuous direct supramaximum stimulation at a frequency of 0.5 Hz.”, “test. […]” for “test.”
# dystrophic mice = experiment: Chronic intravenous injection in dystrophic mice (body weight, EDL muscle weight, CPK in blood and muscle); type: in vivo
# Protocol: In one series of experiments, the C-terminal peptide, glycylglutamine, was injected intravenously into the blood of dystrophic mice 4 to 5 times a week in an amount of approximately 1.5 microgram/g body weight each time over a seven week period. Control mice were injected with the same volume of saline at the same times. There were six mice in each group.
# The following measurements were made:
# 1. Change in body weight (the dystrophic mice would usually not gain significant weight over seven weeks and might even lose weight-depending on their age).
# 2. Weight of the extensor digitorum longus (EDL) muscle.
# 3. Level of CPK in the blood (a diagnostic test for muscular dystrophy is to measure the level of CPK in the blood. In muscle diseases, the blood levels of enzymes such as CPK are elevated and in muscular dystrophy the levels can be very high).
# 4. CPK enzyme levels in the muscle.
# [3] = tested on: CPK leakage into the blood; settings: intravenous injection of β-endorphin alone; cited from earlier work
# mouse diaphragm muscle [4] = experiment: Contractions of hemidiaphragm in response to nerve stimulation in the presence of neostigmine sulphate; type: cell-based, mice, C57BL/6j strain; settings: neostigmine sulphate 10^−5 M, peptide 10^−7 M; mean ± S.E.M.
# Protocol: as §1
# as §2, with “recorded. […]” for “recorded.”
# [5] = indirect stimulation 0.5 Hz, mean ± SEM
Molecule,effect on the amplitude of the contractions (in words) (mouse diaphragm muscle [1]; indirect stimulation 0.5 Hz),"tension developed, % of the control values (absence of added peptide) (mouse diaphragm muscle [2]) [%]",blockade of the agonist's/peptide's effect on contractile responses by NTB (d2-opioid antagonist) (mouse diaphragm muscle [1]),maximum increase in the response (mouse diaphragm muscle [1]; [5]),blockade of the peptide's effect on contractile responses by naloxone (mouse diaphragm muscle [1]),1/2 relaxation time (mouse diaphragm muscle [1]),Time to peak (mouse diaphragm muscle [1]),other results
N[C@@H](CCC(=O)O)C(=O)O [L-glutamic acid],no effect,–,–,–,–,–,–,–
CC(C)[C@H](NC(=O)[C@H](CCC(=O)O)NC(=O)[C@H](Cc1ccccc1)NC(=O)[C@@H](C)NC(=O)[C@@H](N)Cc1ccc(O)cc1)C(=O)N[C@H](C(=O)NCC(N)=O)C(C)C [deltorphin II],–,–,–,–,–,–,–,"EC50 (mouse diaphragm muscle [1]; indirect stimulation 0.5 Hz, room temperature, read-out: EC50 for increase in contractile response): 0.2 nM"
"NCC(=O)N[C@@H](CCC(N)=O)C(=O)O [glycylglutamine, glycyl-L-glutamine] (H-Gly-Gln-OH)",immediate increase,98.7±0.9,"Neither naloxone, BNTX, nor NTB blocked",18.5±1.5%,"Neither naloxone, BNTX, nor NTB blocked",–,–,"increase in body weight (dystrophic mice; i.v. approximately 1.5 microgram/g 4 to 5 times a week, seven week period, statistically significant): approximately 12%; reduction of CPK level in the blood (dystrophic mice; i.v. approximately 1.5 microgram/g 4 to 5 times a week, seven weeks): 25%; increase in EDL muscle weight (dystrophic mice; i.v. approximately 1.5 microgram/g 4 to 5 times a week, seven weeks, not statistically significant): approximately 5%; increase of enzyme (CPK) concentration in the EDL muscle (dystrophic mice; seven weeks, calculated on a wet weight basis): 55%; blockade of the agonist's/peptide's effect on contractile responses by BNTX (d1-opioid antagonist) (mouse diaphragm muscle [1]): Neither naloxone, BNTX, nor NTB blocked; lowest concentration at which significant increases in contractile responses were seen (mouse diaphragm muscle [1]; indirect stimulation): 10^−10 M"
CC[C@H](C)[C@H](NC(=O)[C@H](C)NC(=O)[C@H](CC(N)=O)NC(=O)[C@H](CCCCN)NC(=O)[C@H](Cc1ccccc1)NC(=O)[C@H](CC(C)C)NC(=O)[C@@H](NC(=O)[C@@H](NC(=O)[C@H](CC(C)C)NC(=O)[C@@H]1CCCN1C(=O)[C@@H](NC(=O)[C@H](CCC(N)=O)NC(=O)[C@H](CO)NC(=O)[C@H](CCCCN)NC(=O)[C@H](CCC(=O)O)NC(=O)[C@H](CO)NC(=O)[C@@H](NC(=O)[C@H](CCSC)NC(=O)[C@H](Cc1ccccc1)NC(=O)CNC(=O)CNC(=O)[C@@H](N)Cc1ccc(O)cc1)[C@@H](C)O)[C@@H](C)O)C(C)C)[C@@H](C)O)C(=O)N[C@H](C(=O)N[C@@H](CCCCN)C(=O)N[C@@H](CC(N)=O)C(=O)N[C@@H](C)C(=O)N[C@@H](Cc1ccc(O)cc1)C(=O)N[C@@H](CCCCN)C(=O)N[C@@H](CCCCN)C(=O)NCC(=O)N[C@@H](CCC(=O)O)C(=O)O)[C@@H](C)CC [β-endorphin],immediate increase,–,neither,34.4±2.9%,complete blockade,99.6 ± 0.3 percentage of the untreated controls,94.1 ± 0.5 percentage of the untreated controls,effect in preventing CPK leakage into the blood [3]: little effect
Ac-K[dK][Sar]E [β-endorphin28-31 analogue],immediate increase,100±1.1,"Neither naloxone, BNTX, nor NTB blocked",16.7±0.9%,"Neither naloxone, BNTX, nor NTB blocked",102.8 ± 2.6 percentage of the untreated controls,95.9 ± 0.3 percentage of the untreated controls,"tension developed in the presence of neostigmine sulphate (mouse diaphragm muscle [4]): 103.4±1.0%; blockade of the agonist's/peptide's effect on contractile responses by BNTX (d1-opioid antagonist) (mouse diaphragm muscle [1]): Neither naloxone, BNTX, nor NTB blocked; duration of the effect on amplitude after addition of the peptide (mouse diaphragm muscle [1]; indirect stimulation): at least 6 minutes; lowest concentration at which significant increases in contractile responses were seen (mouse diaphragm muscle [1]; indirect stimulation): 10^−10 M"
"N-Acetyl β-endorphin (Ac-YGGFMTSEKSQTPLVTLFKNAIIKNAYKKGE; UniProt P01189 237-267, looked up)",no significant effect,–,–,–,–,–,–,"responses in the presence of the peptide (mouse diaphragm muscle [1]; three preparations, concentration not given, mean ± SEM): 101.5±0.7%"
"β-Endorphin 1-16 (YGGFMTSEKSQTPLVT; Beta-endorphin; UniProt P01189 237-252, looked up, fragment) [β-endorphin fragment (α-endorphin)]",no significant effect,–,–,–,–,–,–,"tension developed, % of the control tension (mouse diaphragm muscle [1]; peptide 10^−6 M, indirect stimulation): 102.0±0.2%"
"β-endorphin1-27 (YGGFMTSEKSQTPLVTLFKNAIIKNAY; Beta-endorphin; UniProt P01189 237-263, looked up, fragment)",immediate increase,99.6±0.5,neither,not maximum even at 10^−6 M,had no effect on the amplitude of the contractions,99.4 ± 0.4 percentage of the untreated controls,98.1 ± 0.4 percentage of the untreated controls,tension developed in the presence of neostigmine sulphate (mouse diaphragm muscle [4]): 102.3±1.2%
